Source: ChEMBL document CHEMBL1135517, “N(6)-alkyl-2-alkynyl derivatives of adenosine as potent and selective agonists at the human adenosine A(3) receptor and a starting point for searching A(2B) ligands” (J Med Chem, 2002)

Legend:
Adenosine receptor A1 = target: T1, Adenosine receptor A1 (Homo sapiens, UniProt P30542); experiment: Binding affinity against Human recombinant Adenosine A1 receptor stably transfected in CHO cells using [3H]CCPA as radioligand; assay type: cell-based
T1 sequence (P30542 whole entry): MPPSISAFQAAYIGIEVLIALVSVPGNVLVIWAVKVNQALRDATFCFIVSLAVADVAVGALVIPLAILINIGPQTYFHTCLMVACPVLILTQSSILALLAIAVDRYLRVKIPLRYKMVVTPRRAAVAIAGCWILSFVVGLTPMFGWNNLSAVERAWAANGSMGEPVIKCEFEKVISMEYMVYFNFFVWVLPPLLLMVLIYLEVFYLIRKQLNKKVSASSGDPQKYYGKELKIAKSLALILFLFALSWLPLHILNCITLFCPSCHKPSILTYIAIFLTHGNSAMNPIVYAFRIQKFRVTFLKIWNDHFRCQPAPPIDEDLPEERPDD

Adenosine receptor A2a = Adenosine receptor A2a (Homo sapiens, UniProt P29274); experiment: Binding affinity against Human recombinant Adenosine A2A receptor stably transfected in CHO cells using [3H]NECA as radioligand; assay type: cell-based
Sequence of Adenosine receptor A2a (P29274 whole entry): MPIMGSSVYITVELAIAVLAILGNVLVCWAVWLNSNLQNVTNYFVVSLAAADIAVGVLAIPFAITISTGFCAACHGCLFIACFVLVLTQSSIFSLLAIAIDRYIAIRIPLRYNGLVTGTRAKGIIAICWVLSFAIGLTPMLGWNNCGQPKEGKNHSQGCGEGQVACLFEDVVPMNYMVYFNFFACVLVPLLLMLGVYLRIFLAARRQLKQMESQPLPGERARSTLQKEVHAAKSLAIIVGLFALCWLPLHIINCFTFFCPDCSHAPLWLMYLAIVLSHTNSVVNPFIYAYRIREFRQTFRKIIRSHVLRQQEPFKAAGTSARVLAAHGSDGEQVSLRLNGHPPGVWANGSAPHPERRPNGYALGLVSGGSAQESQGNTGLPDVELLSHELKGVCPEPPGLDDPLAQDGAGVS

Adenosine receptor A3 = target: T2, Adenosine receptor A3 (Homo sapiens, UniProt P0DMS8); experiment: Binding affinity against Human recombinant Adenosine A3 receptor stably transfected in CHO cells using [3H]NECA as radioligand; assay type: cell-based
T2 sequence (P0DMS8 whole entry): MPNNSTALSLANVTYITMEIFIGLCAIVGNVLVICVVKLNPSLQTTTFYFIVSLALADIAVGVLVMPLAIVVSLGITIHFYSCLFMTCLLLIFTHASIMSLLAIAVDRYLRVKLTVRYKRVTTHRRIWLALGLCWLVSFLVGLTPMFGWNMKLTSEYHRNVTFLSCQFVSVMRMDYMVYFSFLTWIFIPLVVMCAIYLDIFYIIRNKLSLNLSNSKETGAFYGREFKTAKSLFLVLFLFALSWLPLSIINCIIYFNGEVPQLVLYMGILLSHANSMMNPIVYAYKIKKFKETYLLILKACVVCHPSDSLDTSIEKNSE

Adenosine receptor A2b = target: T3, Adenosine receptor A2b (Homo sapiens, UniProt P29275); experiment: Receptor-stimulated activity in CHO cells stably transfected with Human recombinant Adenosine A2B receptor measuring adenylyl cyclase activity
T3 sequence (P29275 whole entry): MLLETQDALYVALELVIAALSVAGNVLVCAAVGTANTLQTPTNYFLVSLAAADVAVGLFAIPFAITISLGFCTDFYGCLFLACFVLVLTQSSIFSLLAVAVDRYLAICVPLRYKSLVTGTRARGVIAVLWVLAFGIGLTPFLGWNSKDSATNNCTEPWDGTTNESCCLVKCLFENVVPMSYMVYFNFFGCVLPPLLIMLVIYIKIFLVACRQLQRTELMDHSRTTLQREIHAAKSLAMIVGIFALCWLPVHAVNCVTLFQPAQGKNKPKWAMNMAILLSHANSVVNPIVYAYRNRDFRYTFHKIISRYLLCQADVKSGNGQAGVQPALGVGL

Q: `Nc1nc(C#Cc2ccccc2)nc2c1ncn2[C@@H]1O[C@H](CO)[C@@H](O)[C@H]1O` was tested. Which Ki (Adenosine receptor A1) did it give?
A: 391 nM

Q: And the Ki (Adenosine receptor A2a)?
A: 363 nM

Q: What about the Ki (Adenosine receptor A3) of the same compound?
A: 16 nM

Q: What about the EC50 (Adenosine receptor A2b) of the same compound?
A: > 100000 nM

Q: Which Ki (Adenosine receptor A1) does the source give for `CCNc1nc(C#C[C@H](O)c2ccccc2)nc2c1ncn2[C@@H]1O[C@H](CO)[C@@H](O)[C@H]1O` here?
A: 2.2 nM

Q: What about the Ki (Adenosine receptor A2a) of the same compound?
A: 1180 nM

Q: What about the Ki (Adenosine receptor A3) of the same compound?
A: 1.4 nM

Q: What about the EC50 (Adenosine receptor A2b) of the same compound?
A: 9100 nM

Q: What does the source list for `Nc1nc(C#C[C@H](O)c2ccccc2)nc2c1ncn2[C@@H]1O[C@H](CO)[C@@H](O)[C@H]1O`?
A: Ki (Adenosine receptor A1): 0.44 nM; Ki (Adenosine receptor A2a): 29 nM; Ki (Adenosine receptor A3): 5 nM; EC50 (Adenosine receptor A2b): 6200 nM

Q: Which results are given for `CC(C)Nc1nc(C#Cc2ccccc2)nc2c1ncn2[C@@H]1O[C@H](CO)[C@@H](O)[C@H]1O`?
A: Ki (Adenosine receptor A1): 429 nM; Ki (Adenosine receptor A2a): 1100 nM; Ki (Adenosine receptor A3): 17 nM; EC50 (Adenosine receptor A2b): > 100000 nM

Q: `CCNc1nc(C#Cc2ccccc2)nc2c1ncn2C1O[C@H](CO)[C@@H](O)[C@H]1O` (some centres not stated) was tested. Which Ki (Adenosine receptor A1) did it give?
A: 1180 nM

Q: And the Ki (Adenosine receptor A2a)?
A: 4450 nM

Q: What about the Ki (Adenosine receptor A3) of the same compound?
A: 4.9 nM

Q: And the EC50 (Adenosine receptor A2b)?
A: > 100000 nM

Q: `CCCCC#Cc1nc(NC)c2ncn([C@@H]3O[C@H](CO)[C@@H](O)[C@H]3O)c2n1` was tested. Which Ki (Adenosine receptor A1) did it give?
A: 327 nM

Q: What about the Ki (Adenosine receptor A2a) of the same compound?
A: 1230 nM

Q: And the Ki (Adenosine receptor A3)?
A: 1.1 nM

Q: What about the EC50 (Adenosine receptor A2b) of the same compound?
A: 100000 nM

Q: `CCCCC#Cc1nc(NC(C)C)c2ncn([C@@H]3O[C@H](CO)[C@@H](O)[C@H]3O)c2n1` was tested. Which Ki (Adenosine receptor A1) did it give?
A: 43 nM

Q: And the Ki (Adenosine receptor A2a)?
A: 196 nM

Q: What about the Ki (Adenosine receptor A3) of the same compound?
A: 9.7 nM

Q: And the EC50 (Adenosine receptor A2b)?
A: 100000 nM

Q: Which Ki (Adenosine receptor A1) does the source give for `CNc1nc(C#Cc2ccccc2)nc2c1ncn2[C@@H]1O[C@H](CO)[C@@H](O)[C@H]1O` here?
A: 1690 nM

Q: And the Ki (Adenosine receptor A2a)?
A: 8530 nM

Q: And the Ki (Adenosine receptor A3)?
A: 3.4 nM

Q: And the EC50 (Adenosine receptor A2b)?
A: 100000 nM

Q: `CCNC(=O)[C@H]1O[C@@H](n2cnc3c(N)nc(C#C[C@H](O)c4ccccc4)nc32)[C@H](O)[C@@H]1O` was tested. Which Ki (Adenosine receptor A1) did it give?
A: 1.9 nM

Q: And the Ki (Adenosine receptor A2a)?
A: 39 nM

Q: What about the Ki (Adenosine receptor A3) of the same compound?
A: 5.5 nM

Q: What about the EC50 (Adenosine receptor A2b) of the same compound?
A: 2400 nM

Q: With `CCNC(=O)[C@H]1O[C@@H](n2cnc3c(N)nc(C#C[C@@H](O)c4ccccc4)nc32)[C@H](O)[C@@H]1O` as the compound, how does the Ki (Adenosine receptor A1) read?
A: 2.1 nM

Q: What about the Ki (Adenosine receptor A2a) of the same compound?
A: 2 nM

Q: And the Ki (Adenosine receptor A3)?
A: 0.75 nM

Q: And the EC50 (Adenosine receptor A2b)?
A: 220 nM

Q: What does the source list for `CCNc1nc(C#C[C@@H](O)c2ccccc2)nc2c1ncn2[C@@H]1O[C@H](CO)[C@@H](O)[C@H]1O`?
A: Ki (Adenosine receptor A1): 3.4 nM; Ki (Adenosine receptor A2a): 64 nM; Ki (Adenosine receptor A3): 0.2 nM; EC50 (Adenosine receptor A2b): 730 nM

Q: What does the source list for `CNc1nc(C#C[C@H](O)c2ccccc2)nc2c1ncn2[C@@H]1O[C@H](CO)[C@@H](O)[C@H]1O`?
A: Ki (Adenosine receptor A1): 7.1 nM; Ki (Adenosine receptor A2a): 1560 nM; Ki (Adenosine receptor A3): 1.2 nM; EC50 (Adenosine receptor A2b): 100000 nM

Q: `CCNC(=O)[C@H]1O[C@@H](n2cnc3c(N)nc(C#CC(O)c4ccccc4)nc32)[C@H](O)[C@@H]1O` (mixture of isomers) was tested. Which Ki (Adenosine receptor A1) did it give?
A: 2.7 nM

Q: What about the Ki (Adenosine receptor A2a) of the same compound?
A: 3.1 nM

Q: And the Ki (Adenosine receptor A3)?
A: 0.42 nM

Q: And the EC50 (Adenosine receptor A2b)?
A: 1100 nM

Q: Which Ki (Adenosine receptor A1) does the source give for `Nc1nc(C#CC(O)c2ccccc2)nc2c1ncn2[C@@H]1O[C@H](CO)[C@@H](O)[C@H]1O` (some centres not stated) here?
A: 0.67 nM

Q: What about the Ki (Adenosine receptor A2a) of the same compound?
A: 7 nM

Q: And the Ki (Adenosine receptor A3)?
A: 3.3 nM

Q: What about the EC50 (Adenosine receptor A2b) of the same compound?
A: 2400 nM

Q: How did the Ki (Adenosine receptor A1) turn out when `CNc1nc(C#CC(O)c2ccccc2)nc2c1ncn2[C@@H]1O[C@H](CO)[C@@H](O)[C@H]1O` (some centres not stated) was run?
A: 8.4 nM

Q: What about the Ki (Adenosine receptor A2a) of the same compound?
A: 273 nM

Q: And the Ki (Adenosine receptor A3)?
A: 0.76 nM

Q: And the EC50 (Adenosine receptor A2b)?
A: 2700 nM

Q: What does the source list for `CCCCC#Cc1nc(N)c2ncn([C@@H]3O[C@H](CO)[C@@H](O)[C@H]3O)c2n1`?
A: Ki (Adenosine receptor A3): 4.7 nM; EC50 (Adenosine receptor A2b): 100000 nM

Q: How did the Ki (Adenosine receptor A1) turn out when `CCNC(=O)[C@H]1O[C@@H](n2cnc3c(N)nc(C#Cc4ccccc4)nc32)[C@H](O)[C@@H]1O` was run?
A: 560 nM

Q: And the Ki (Adenosine receptor A2a)?
A: 620 nM

Q: What about the Ki (Adenosine receptor A3) of the same compound?
A: 6.2 nM

Q: And the EC50 (Adenosine receptor A2b)?
A: > 100000 nM

Q: `Nc1nc(C#C[C@@H](O)c2ccccc2)nc2c1ncn2[C@@H]1O[C@H](CO)[C@@H](O)[C@H]1O` was tested. Which Ki (Adenosine receptor A1) did it give?
A: 0.67 nM

Q: And the Ki (Adenosine receptor A2a)?
A: 1.8 nM

Q: And the Ki (Adenosine receptor A3)?
A: 1.4 nM

Q: And the EC50 (Adenosine receptor A2b)?
A: 920 nM

Q: For `CNc1nc(C#C[C@@H](O)c2ccccc2)nc2c1ncn2[C@@H]1O[C@H](CO)[C@@H](O)[C@H]1O`, which Ki (Adenosine receptor A1) is on record?
A: 9.6 nM

Q: What about the Ki (Adenosine receptor A2a) of the same compound?
A: 163 nM

Q: And the Ki (Adenosine receptor A3)?
A: 0.53 nM

Q: What about the EC50 (Adenosine receptor A2b) of the same compound?
A: 2600 nM

Q: Which results are given for `CC(C)(C)OC(=O)C1CCCN1C[C@@H](O)[C@H](Cc1ccccc1)NC(=O)[C@H](CC(N)=O)NC(=O)OCc1ccccc1` (some centres not stated)?
A: Ki (Adenosine receptor A1): 60 nM; Ki (Adenosine receptor A3): 2.4 nM; EC50 (Adenosine receptor A2b): 6100 nM

Q: Which results are given for `CC(C)Nc1nc(C#C[C@@H](O)c2ccccc2)nc2c1ncn2[C@@H]1O[C@H](CO)[C@@H](O)[C@H]1O`?
A: Ki (Adenosine receptor A1): 1.7 nM; Ki (Adenosine receptor A2a): 43 nM; Ki (Adenosine receptor A3): 1.5 nM; EC50 (Adenosine receptor A2b): 960 nM

Q: With `CCCCC#Cc1nc(NCC)c2ncn([C@@H]3O[C@H](CO)[C@@H](O)[C@H]3O)c2n1` as the compound, how does the Ki (Adenosine receptor A1) read?
A: 138 nM

Q: What about the Ki (Adenosine receptor A2a) of the same compound?
A: 267 nM

Q: And the Ki (Adenosine receptor A3)?
A: 2.3 nM

Q: What about the EC50 (Adenosine receptor A2b) of the same compound?
A: 100000 nM

Q: What does the source list for `CC(C)Nc1nc(C#C[C@H](O)c2ccccc2)nc2c1ncn2[C@@H]1O[C@H](CO)[C@@H](O)[C@H]1O`?
A: Ki (Adenosine receptor A1): 1.1 nM; Ki (Adenosine receptor A2a): 324 nM; Ki (Adenosine receptor A3): 4.9 nM; EC50 (Adenosine receptor A2b): 8900 nM

Q: What does the source list for `CC(C)Nc1nc(C#CC(O)c2ccccc2)nc2c1ncn2[C@@H]1O[C@H](CO)[C@@H](O)[C@H]1O` (some centres not stated)?
A: Ki (Adenosine receptor A1): 1.5 nM; Ki (Adenosine receptor A2a): 96 nM; Ki (Adenosine receptor A3): 2.3 nM; EC50 (Adenosine receptor A2b): 6100 nM

Q: With `CCNc1nc(C#CC(O)c2ccccc2)nc2c1ncn2[C@@H]1O[C@H](CO)[C@@H](O)[C@H]1O` (some centres not stated) as the compound, how does the Ki (Adenosine receptor A1) read?
A: 2.7 nM

Q: What about the Ki (Adenosine receptor A2a) of the same compound?
A: 94 nM

Q: And the Ki (Adenosine receptor A3)?
A: 0.97 nM

Q: And the EC50 (Adenosine receptor A2b)?
A: 1700 nM
